Converted amounts (≈) assume the structure as drawn. Blank lines part the entries; values can stand above or below the molecule they belong to. The source made the active and inactive calls. The rule behind the calls is not given here.
How the values were obtained:
Streptococcus pneumoniae [1] = assay: Antibacterial activity against Streptococcus pneumoniae 1629 after 18 to 24 hrs by broth microdilution technique; assay type: functional
[2] = Inhibition of Escherichia coli DNA gyrase-mediated DNA replication using [3H]dATP by scintillation proximity assay
Staphylococcus aureus = assay: Antibacterial activity against Staphylococcus aureus WCUH 29 after 18 to 24 hrs by broth microdilution technique; assay type: functional
[3] = target: Voltage-gated inwardly rectifying potassium channel KCNH2 (Homo sapiens, UniProt Q12809); assay: Inhibition of human ERG by whole cell patch clamp assay
Haemophilus influenzae [4] = assay: Antibacterial activity against Haemophilus influenzae H128 after 18 to 24 hrs by broth microdilution technique; assay type: functional
[5] = Volume of distribution at steady state in Sprague-Dawley rat at 2.9 mg/kg, iv; assay type: ADME, organism-based; set-up: dose 2.9 mg/kg, route intravenous; conditions: in vivo, read-out: Vdss
[6] = Mean residence time in Beagle dog at 4.5 mg/kg, po; assay type: ADME, organism-based, Canis lupus familiaris; set-up: dose 4.5 mg/kg, route oral; conditions: in vivo
Canis familiaris [7] = assay: Hepatic blood flow in Beagle dog at 2.6 mg/kg, iv; assay type: ADME, organism-based, Canis lupus familiaris, Liver; set-up: dose 2.6 mg/kg, route intravenous; conditions: in vivo
[8] = Plasma protein binding in dog; assay type: ADME, cell-free, Canis lupus familiaris; conditions: read-out: PPB (converted)
[9] = Intrinsic clearance in monkey liver microsomes; assay type: ADME, Macaca mulatta, Microsome; conditions: rhesus monkey
[10] = Half life in cynomolgus monkey at 2.7 mg/kg, iv; assay type: ADME, organism-based, Macaca fascicularis; set-up: dose 2.7 mg/kg, route intravenous; conditions: in vivo
[11] = Oral bioavailability in cynomolgus monkey at 4.4 mg/kg; assay type: ADME, organism-based, Macaca fascicularis; conditions: in vivo
Liver microsomes [12] = assay: Drug metabolism in rat liver microsomes assessed as mono-oxidation metabolite formation; assay type: ADME, Microsome
[13] = Volume of distribution at steady state in Beagle dog at 2.6 mg/kg, iv; assay type: ADME, organism-based, Canis lupus familiaris; set-up: dose 2.6 mg/kg, route intravenous; conditions: in vivo, read-out: Vdss
[14] = Mean residence time in Sprague-Dawley rat at 4.6 mg/kg, po; assay type: ADME, organism-based; set-up: dose 4.6 mg/kg, route oral; conditions: in vivo
[15] = Oral bioavailability in Sprague-Dawley rat at 4.6 mg/kg; assay type: ADME, organism-based; conditions: in vivo
[16] = Oral bioavailability in Beagle dog at 4.5 mg/kg; assay type: ADME, organism-based, Canis lupus familiaris; conditions: in vivo
Liver = assay: Intrinsic clearance in dog liver microsomes; assay type: ADME, Canis lupus familiaris, Microsome
Streptococcus pneumoniae [17] = assay: Antibacterial activity against Streptococcus pneumoniae 1629 infected in rat assessed as log decrease in colony forming units per lung at 25 mg/kg, po after 48 hrs relative to untreated control; assay type: functional
[18] = Plasma protein binding in human; assay type: ADME, cell-free; conditions: read-out: PPB (converted)
Cynomolgus monkey [19] = assay: Renal clearance in cynomolgus monkey at 2.7 mg/kg, iv; assay type: ADME, organism-based, Macaca fascicularis, Kidney; set-up: dose 2.7 mg/kg, route intravenous; conditions: in vivo
[20] = AUC in cynomolgus monkey at 4.4 mg/kg, po; assay type: ADME, organism-based, Macaca fascicularis; set-up: dose 4.4 mg/kg, route oral; conditions: plasma
Canis familiaris [21] = assay: Renal clearance in Beagle dog at 2.6 mg/kg, iv; assay type: ADME, organism-based, Canis lupus familiaris, Kidney; set-up: dose 2.6 mg/kg, route intravenous; conditions: in vivo
Rattus norvegicus [22] = assay: Hepatic blood flow in Sprague-Dawley rat at 2.9 mg/kg, iv; assay type: ADME, organism-based, Liver; set-up: dose 2.9 mg/kg, route intravenous; conditions: in vivo
[23] = Drug metabolism in monkey liver microsomes assessed as mono-oxidation metabolite formation; assay type: ADME, Macaca mulatta, Microsome; conditions: rhesus monkey
[24] = Blood clearance in cynomolgus monkey at 2.7 mg/kg, iv; assay type: ADME, organism-based, Macaca fascicularis; set-up: dose 2.7 mg/kg, route intravenous
[25] = Half life in Beagle dog at 2.6 mg/kg, iv; assay type: ADME, organism-based, Canis lupus familiaris; set-up: dose 2.6 mg/kg, route intravenous; conditions: in vivo
[26] = Volume of distribution at steady state in cynomolgus monkey at 2.7 mg/kg, iv; assay type: ADME, organism-based, Macaca fascicularis; set-up: dose 2.7 mg/kg, route intravenous; conditions: in vivo, read-out: Vdss
[27] = Plasma protein binding in monkey; assay type: ADME, cell-free, Macaca mulatta; conditions: rhesus monkey, read-out: PPB (converted)
Rattus norvegicus [28] = assay: Renal clearance in Sprague-Dawley rat at 2.9 mg/kg, iv; assay type: ADME, organism-based, Kidney; set-up: dose 2.9 mg/kg, route intravenous; conditions: in vivo
Streptococcus pneumoniae [29] = assay: Antibacterial activity against Streptococcus pneumoniae 1629 infected in rat assessed as complete eradication of infection at 50 mg/kg, po after 48 hrs; assay type: functional, organism-based; set-up: dose 50 mg/kg
Cynomolgus monkey [30] = assay: Hepatic blood flow in cynomolgus monkey at 2.7 mg/kg, iv; assay type: ADME, organism-based, Macaca fascicularis, Liver; set-up: dose 2.7 mg/kg, route intravenous; conditions: in vivo
[31] = Mean residence time in cynomolgus monkey at 4.4 mg/kg, po; assay type: ADME, organism-based, Macaca fascicularis; set-up: dose 4.4 mg/kg, route oral; conditions: in vivo
Liver microsomes [32] = assay: Intrinsic clearance in human liver microsomes; assay type: ADME, Microsome
[33] = AUC in Beagle dog at 4.5 mg/kg, po; assay type: ADME, organism-based, Canis lupus familiaris; set-up: dose 4.5 mg/kg, route oral; conditions: plasma
[34] = Half life in Sprague-Dawley rat at 2.9 mg/kg, iv; assay type: ADME, organism-based; set-up: dose 2.9 mg/kg, route intravenous; conditions: in vivo
[35] = Blood clearance in Beagle dog at 2.6 mg/kg, iv; assay type: ADME, organism-based, Canis lupus familiaris; set-up: dose 2.6 mg/kg, route intravenous
[36] = AUC in Sprague-Dawley rat at 4.6 mg/kg, po; assay type: ADME, organism-based; set-up: dose 4.6 mg/kg, route oral; conditions: plasma
[37] = Drug metabolism in dog liver microsomes assessed as mono-oxidation metabolite formation; assay type: ADME, Canis lupus familiaris, Microsome
[38] = Plasma protein binding in rat; assay type: ADME, cell-free; conditions: read-out: PPB (converted)
[39] = Blood clearance in Sprague-Dawley rat at 2.9 mg/kg, iv; assay type: ADME, organism-based; set-up: dose 2.9 mg/kg, route intravenous
Haemophilus influenzae [40] = assay: Antibacterial activity against Haemophilus influenzae Q1 after 18 to 24 hrs by broth microdilution technique; assay type: functional

Chain of Voltage-gated inwardly rectifying potassium channel KCNH2 (Q12809 whole entry): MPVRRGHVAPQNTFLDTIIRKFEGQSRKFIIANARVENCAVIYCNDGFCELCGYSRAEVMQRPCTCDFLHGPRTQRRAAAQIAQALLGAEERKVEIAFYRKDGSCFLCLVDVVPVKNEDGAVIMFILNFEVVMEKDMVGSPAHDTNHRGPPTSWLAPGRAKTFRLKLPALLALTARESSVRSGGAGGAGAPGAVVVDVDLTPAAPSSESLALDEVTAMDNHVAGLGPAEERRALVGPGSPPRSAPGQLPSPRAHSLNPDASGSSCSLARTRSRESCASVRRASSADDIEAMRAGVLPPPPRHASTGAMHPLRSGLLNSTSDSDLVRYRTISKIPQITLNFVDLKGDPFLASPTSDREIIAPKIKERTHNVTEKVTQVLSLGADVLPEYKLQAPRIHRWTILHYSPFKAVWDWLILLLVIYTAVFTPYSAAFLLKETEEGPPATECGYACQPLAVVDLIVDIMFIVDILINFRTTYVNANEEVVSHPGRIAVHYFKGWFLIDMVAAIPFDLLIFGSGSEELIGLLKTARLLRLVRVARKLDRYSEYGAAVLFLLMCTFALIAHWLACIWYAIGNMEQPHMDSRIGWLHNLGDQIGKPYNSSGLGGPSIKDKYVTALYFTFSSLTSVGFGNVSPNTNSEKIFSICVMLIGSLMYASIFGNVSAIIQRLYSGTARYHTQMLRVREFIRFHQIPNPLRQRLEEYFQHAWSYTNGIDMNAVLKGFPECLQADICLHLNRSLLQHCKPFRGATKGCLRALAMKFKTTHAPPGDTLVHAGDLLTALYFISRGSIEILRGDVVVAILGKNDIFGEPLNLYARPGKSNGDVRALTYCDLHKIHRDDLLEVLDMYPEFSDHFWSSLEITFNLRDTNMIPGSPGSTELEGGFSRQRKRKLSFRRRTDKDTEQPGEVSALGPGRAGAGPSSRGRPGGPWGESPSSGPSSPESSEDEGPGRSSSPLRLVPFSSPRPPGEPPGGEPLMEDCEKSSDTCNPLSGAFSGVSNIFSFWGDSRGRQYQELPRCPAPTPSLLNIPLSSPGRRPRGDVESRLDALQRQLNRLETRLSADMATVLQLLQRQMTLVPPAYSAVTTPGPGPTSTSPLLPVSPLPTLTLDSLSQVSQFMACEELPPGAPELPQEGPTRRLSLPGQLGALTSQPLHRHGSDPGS

- MIC (Streptococcus pneumoniae [1]): 0.125 µg/mL (≈ 0.269 µM)
- IC50 [2]: 0.01 µg/mL (≈ 0.0215 µM)
- MIC (Staphylococcus aureus): 0.125 µg/mL (≈ 0.269 µM)
- MIC (Haemophilus influenzae [4]): 1 µg/mL (≈ 2.15 µM)
SMILES: COc1ccc2nccc(NC(=O)[C@]3(O)CC[C@@H](NCc4cc5c(cn4)OCCO5)CC3)c2c1
- IC50 [3]: 200 µM

- Vd [5]: 2.41 L/kg
- MRT [6]: 9.8 h
- MIC (Streptococcus pneumoniae [1]): 0.125 µg/mL (≈ 0.269 µM)
- QH (Canis familiaris [7]): 73%
- IC50 [2]: 0.013 µg/mL (≈ 0.0279 µM)
- fraction unbound [8]: 0.263
- CL [9]: 2.6 mL/min/g
- half-life [10]: 108 min
- bioavailability [11]: 9%
- Drug metabolism (Liver microsomes [12]): Active
- Vd [13]: 3.7 L/kg
- MRT [14]: 2.9 h
- bioavailability [15]: 18%
- bioavailability [16]: 63%
- CL (Liver): 2.2 mL/min/g
- fraction unbound [18]: 0.274
- CL (Cynomolgus monkey [19]): 3%
- AUC [20]: 190 ng·h/mL
- CL (Canis familiaris [21]): 3%
- QH (Rattus norvegicus [22]): 73%
- Drug metabolism [23]: Active
- clearance [24]: 34.2 mL/min/kg
- half-life [25]: 378 min
- Vd [26]: 4.1 L/kg
- fraction unbound [27]: 0.165
- CL (Rattus norvegicus [28]): 3%
- QH (Cynomolgus monkey [30]): 73%
- MRT [31]: 6.4 h
- CL (Liver microsomes [32]): 0.8 mL/min/g
- AUC [33]: 5700 ng·h/mL
- half-life [34]: 60 min
- clearance [35]: 8.4 mL/min/kg
- AUC [36]: 340 ng·h/mL
- MIC (Staphylococcus aureus): 0.01 µg/mL (≈ 0.0215 µM)
- Drug metabolism [37]: Active
- fraction unbound [38]: 0.268
- clearance [39]: 41.1 mL/min/kg
- MIC (Haemophilus influenzae [4]): 0.5 µg/mL (≈ 1.07 µM)
SMILES: COc1ccc2nccc(NC(=O)[C@]3(O)CC[C@@H](NCc4cc5c(cn4)OCCO5)CC3)c2n1
- log10cfu (Streptococcus pneumoniae [17]): 2
- Activity (Streptococcus pneumoniae [29]): Active

- MIC (Streptococcus pneumoniae [1]): 0.125 µg/mL (≈ 0.279 µM)
- IC50 [2]: 0.003 µg/mL (≈ 0.00669 µM)
- MIC (Staphylococcus aureus): 0.03 µg/mL (≈ 0.0669 µM)
- MIC (Haemophilus influenzae [4]): 1 µg/mL (≈ 2.23 µM)
SMILES: COc1ccc2nccc(NC(=O)[C@H]3CC[C@H](NCc4ccc5c(c4)OCCO5)CC3)c2n1

- MIC (Streptococcus pneumoniae [1]): 0.06 µg/mL (≈ 0.131 µM)
- IC50 [2]: 0.002 µg/mL (≈ 0.00435 µM)
- MIC (Staphylococcus aureus): 0.03 µg/mL (≈ 0.0653 µM)
- MIC (Haemophilus influenzae [4]): 0.5 µg/mL (≈ 1.09 µM)
SMILES: N#Cc1ccc2cccc(NC(=O)[C@]3(O)CC[C@@H](NCc4cc5c(cn4)OCCO5)CC3)c2n1

- MIC (Streptococcus pneumoniae [1]): 0.06 µg/mL (≈ 0.129 µM)
- IC50 [2]: 0.01 µg/mL (≈ 0.0215 µM)
- MIC (Staphylococcus aureus): 0.03 µg/mL (≈ 0.0644 µM)
- MIC (Haemophilus influenzae [4]): 2 µg/mL (≈ 4.3 µM)
SMILES: COc1ccc2nccc(NC(=O)[C@]3(O)CC[C@@H](NCc4cnc5c(c4)OCCO5)CC3)c2n1

- MIC (Streptococcus pneumoniae [1]): 0.125 µg/mL (≈ 0.259 µM)
- IC50 [2]: 0.009 µg/mL (≈ 0.0187 µM)
- MIC (Staphylococcus aureus): 0.06 µg/mL (≈ 0.124 µM)
- MIC (Haemophilus influenzae [4]): 1 µg/mL (≈ 2.07 µM)
SMILES: COc1cc(F)c2nccc(NC(=O)[C@]3(O)CC[C@@H](NCc4cc5c(cn4)OCCO5)CC3)c2c1
- IC50 [3]: 113 µM

- MIC (Streptococcus pneumoniae [1]): 0.25 µg/mL (≈ 0.578 µM)
- IC50 [2]: 0.069 µg/mL (≈ 0.16 µM)
- MIC (Staphylococcus aureus): 0.125 µg/mL (≈ 0.289 µM)
- MIC (Haemophilus influenzae [4]): 2 µg/mL (≈ 4.62 µM)
SMILES: Cc1ccc2cccc(NC(=O)[C@H]3CC[C@H](NCc4cc5c(cn4)OCCO5)CC3)c2n1

- MIC (Streptococcus pneumoniae [1]): 0.125 µg/mL (≈ 0.279 µM)
- IC50 [2]: 0.05 µg/mL (≈ 0.111 µM)
- MIC (Staphylococcus aureus): 0.125 µg/mL (≈ 0.279 µM)
- MIC (Haemophilus influenzae [4]): 2 µg/mL (≈ 4.46 µM)
SMILES: Cc1ccc2cccc(NC(=O)[C@]3(O)CC[C@@H](NCc4cc5c(cn4)OCCO5)CC3)c2n1
- IC50 [3]: 2 µM

- MIC (Streptococcus pneumoniae [1]): 0.5 µg/mL (≈ 1.08 µM)
- IC50 [2]: 0.102 µg/mL (≈ 0.221 µM)
- MIC (Staphylococcus aureus): 0.5 µg/mL (≈ 1.08 µM)
- MIC (Haemophilus influenzae [4]): 16 µg/mL (≈ 34.6 µM)
SMILES: CO[C@@H]1C[C@H](C(=O)Nc2cccc3ccc(C)nc23)CC[C@H]1NCc1cc2c(cn1)OCCO2

- MIC (Streptococcus pneumoniae [1]): 0.03 µg/mL (≈ 0.0653 µM)
- IC50 [2]: 0.001 µg/mL (≈ 0.00218 µM)
- MIC (Staphylococcus aureus): 0.01 µg/mL (≈ 0.0218 µM)
- MIC (Haemophilus influenzae [4]): 0.5 µg/mL (≈ 1.09 µM)
SMILES: N#Cc1ccc2cccc(NC(=O)[C@@H]3CC[C@@H](NCc4cc5c(cn4)OCCO5)[C@@H](O)C3)c2n1

- MIC (Streptococcus pneumoniae [1]): 0.03 µg/mL (≈ 0.0646 µM)
- IC50 [2]: 0.004 µg/mL (≈ 0.00861 µM)
- MIC (Staphylococcus aureus): 0.03 µg/mL (≈ 0.0646 µM)
- MIC (Haemophilus influenzae [4]): 0.5 µg/mL (≈ 1.08 µM)
SMILES: COc1ccc2nccc(NC(=O)[C@]3(O)CC[C@@H](NCc4ccc5c(c4)OCCO5)CC3)c2n1
- IC50 [3]: 25 µM

- MIC (Streptococcus pneumoniae [1]): 0.03 µg/mL (≈ 0.0667 µM)
- IC50 [2]: 0.008 µg/mL (≈ 0.0178 µM)
- MIC (Staphylococcus aureus): 0.01 µg/mL (≈ 0.0222 µM)
- MIC (Haemophilus influenzae [4]): 0.25 µg/mL (≈ 0.556 µM)
SMILES: COc1ccc2nccc(NC(=O)[C@H]3CC[C@H](NCc4cc5c(cn4)OCCO5)CC3)c2n1
- IC50 [3]: 29 µM

- MIC (Streptococcus pneumoniae [1]): 0.25 µg/mL (≈ 0.559 µM)
- IC50 [2]: 0.017 µg/mL (≈ 0.038 µM)
- MIC (Haemophilus influenzae [40]): 2 µg/mL (≈ 4.47 µM)
- MIC (Staphylococcus aureus): 0.03 µg/mL (≈ 0.067 µM)
SMILES: COc1ccc2nccc(NC(=O)[C@H]3CC[C@H](NCc4ccc5c(c4)OCCO5)CC3)c2c1
- IC50 [3]: 25 µM

Source: ChEMBL document CHEMBL1926622, “Novel cyclohexyl-amides as potent antibacterials targeting bacterial type IIA topoisomerases” (Bioorg Med Chem Lett, 2011)
